This note sets out measurements from ChEMBL document CHEMBL1150733, “(+)-Curcuphenol and (+)-Curcudiol, Sesquiterpene Phenols from Shallow and Deep Water Collections of the Marine Sponge Didiscus flavus” (J Nat Prod, 1987).

Values after ≈ are worked out from the molar mass of the structure shown.

Test [1] deals with P388. As to the kind of experiment: Cytotoxicity against mouse P388 cells. It is filed as functional, cell-based.
The nature of test [2]: Cytotoxicity against human MDA-MB cells. The test is classed as functional.
Test [3] concerns A549. As to the kind of experiment: Cytotoxicity against human A549 cells. The test is classed as functional.
Test [4] has as its system Candida albicans. As to the kind of experiment: Antifungal activity against Candida albicans. The test is classed as functional.
Test [5] deals with HCT-8. Nature of the test: Cytotoxicity against human HCT8 cells. It is filed as functional.

Take `CC(C)=CCC[C@H](C)c1ccc(C)cc1O`: the IC50 in test [1] is 7 µg/mL (≈ 32.1 µM). The MIC in test [2] is 0.1 µg/mL (≈ 0.458 µM); in test [3] it was 10 µg/mL (≈ 45.8 µM); in test [4] it was 8 µg/mL (≈ 36.6 µM); in test [5], 0.1 µg/mL (≈ 0.458 µM).
In turn, `Cc1ccc([C@@H](C)CCCC(C)(C)O)c(O)c1` had an MIC in test [4] of 250 µg/mL (≈ 1060 µM).

What is called IC50 is the concentration needed to halve the response being measured. Low readings indicate greater potency in that assay, high ones weaker potency in that assay.
